Where only a bound is given, the exact number is not on record here.

This note sets out measurements from patent US9085576B2 (AMGEN INC., priority 2013, dated 2015).

One assay concerns the target BACE (Homo sapiens (Human), UniProt P56817). Description: In vitro BACE cell-based assay (Aβ40 in conditioned medium, sandwich ELISA). In general terms: In an ELISA, binding on a coated surface is turned into a signal by an enzyme label.
A further assay deals with Cathepsin D (Cat D) (Homo sapiens (Human), UniProt P07339). Description: In vitro enzymatic Cathepsin D (Cat D) FRET assay. Type of assay: biochemical. The settings on record: read-out: CatD IC50.
Assay [1] has as its target Beta Secretase enzyme (BACE) (Homo sapiens (Human), UniProt P56817). As to the kind of experiment: In vitro enzymatic BACE FRET assay. Type of assay: biochemical. The note with it: read-out: BACE1 Enzyme assay IC50.

Chain of BACE (P56817 46-501, species assumed): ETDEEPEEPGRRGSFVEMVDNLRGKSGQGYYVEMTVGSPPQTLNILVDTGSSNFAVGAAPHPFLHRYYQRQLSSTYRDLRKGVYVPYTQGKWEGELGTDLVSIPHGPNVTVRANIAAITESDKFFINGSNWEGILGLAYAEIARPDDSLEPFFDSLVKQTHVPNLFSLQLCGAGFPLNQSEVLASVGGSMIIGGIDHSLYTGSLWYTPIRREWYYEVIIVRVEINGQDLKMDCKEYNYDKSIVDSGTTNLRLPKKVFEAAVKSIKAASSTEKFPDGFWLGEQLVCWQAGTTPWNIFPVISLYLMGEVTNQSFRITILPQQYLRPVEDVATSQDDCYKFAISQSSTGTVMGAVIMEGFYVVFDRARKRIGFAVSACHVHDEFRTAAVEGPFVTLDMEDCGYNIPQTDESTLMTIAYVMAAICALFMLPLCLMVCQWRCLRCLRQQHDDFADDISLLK
Chain of Beta Secretase enzyme (BACE) (P56817 46-501): as the sequence (P56817 46-501, species assumed) above
Chain of Cathepsin D (Cat D) (P07339 65-412, species assumed): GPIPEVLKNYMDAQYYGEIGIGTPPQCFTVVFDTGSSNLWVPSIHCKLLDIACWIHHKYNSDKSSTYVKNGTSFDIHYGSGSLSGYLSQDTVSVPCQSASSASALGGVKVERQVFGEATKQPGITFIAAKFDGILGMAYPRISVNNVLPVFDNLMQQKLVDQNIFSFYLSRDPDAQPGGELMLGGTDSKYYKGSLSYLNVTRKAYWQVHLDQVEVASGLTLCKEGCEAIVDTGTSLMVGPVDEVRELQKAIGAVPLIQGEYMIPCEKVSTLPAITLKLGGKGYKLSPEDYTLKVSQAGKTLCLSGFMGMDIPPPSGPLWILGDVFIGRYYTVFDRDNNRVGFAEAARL

One may read the IC50 as the concentration at which inhibition is half-maximal. As for `NC1=N[C@@](c2cc(NC(=O)c3ccc(OCF)cn3)ccc2F)(C(F)F)[C@H]2C[C@H]2O1` [Example 180, N-(3-((1R,5S,6R)-3-amino-5-(difluoromethyl)-2-oxa-4-azabicyclo[4.1.0]hept-3-en-5-yl)-4-fluorophenyl)-5-(fluoromethoxy) picolinamide], the figures for the half-maximal inhibitory concentration (IC50) (on BACE; at Cathepsin D (Cat D); in assay [1]) were 0.0449 µM, above 1.65 µM and 0.0918 µM, respectively.

For the compound `NC1=N[C@@](c2cc(NC(=O)c3csc(Cl)c3)ccc2F)(C(F)F)[C@H]2C[C@H]2O1` [Example 181, N-(3-((1R,5S,6R)-3-amino-5-(difluoromethyl)-2-oxa-4-azabicyclo[4.1.0]hept-3-en-5-yl)-4-fluorophenyl)-5-chlorothiophene-3-carboxamide], the IC50 against BACE was found to be 1.14 µM; on Cathepsin D (Cat D), 580 µM; in assay [1] it was 1.4 µM.

In the case of `CS(=O)(=O)c1ccc(C(=O)Nc2ccc(F)c([C@@]3(C(F)F)N=C(N)O[C@@H]4C[C@@H]43)c2)nc1` [Example 182, N-(3-((1R,5S,6R)-3-amino-5-(difluoromethyl)-2-oxa-4-azabicyclo[4.1.0]hept-3-en-5-yl)-4-fluorophenyl)-5-(methylsulfonyl) picolinamide], the IC50 at BACE worked out at 3.36 µM; at Cathepsin D (Cat D) it was 565 µM; in assay [1] it was 13.1 µM.

Consider `NC1=N[C@](CF)(c2cc(NC(=O)c3ccc(OCF)cn3)ccc2Cl)[C@H]2C[C@H]2O1` [Example 183, N-(3-((1R,5S,6R)-3-amino-5-(fluoromethyl)-2-oxa-4-azabicyclo[4.1.0]hept-3-en-5-yl)-4-chlorophenyl)-5-(fluoromethoxy) picolinamide], for which the IC50 came to 0.0218 µM against BACE, 882 µM at Cathepsin D (Cat D) and 0.0998 µM in assay [1].

As for `Cc1cc(OCC#N)cnc1C(=O)Nc1ccc(F)c([C@@]2(C(F)F)N=C(N)O[C@@H]3C[C@@H]32)c1` [Example 184, N-(3-((1R,5S,6R)-3-amino-5-(difluoromethyl)-2-oxa-4-azabicyclo[4.1.0]hept-3-en-5-yl)-4-fluorophenyl)-5-(cyanomethoxy)-3-methylpicolinamide], the concentration for half-maximal inhibition (IC50) against BACE stood at 0.62 µM; on Cathepsin D (Cat D), 1090 µM; in assay [1], 0.357 µM.

With `Cc1cnc(C(=O)Nc2ccc(F)c([C@@]3(C(F)F)N=C(N)O[C@@H]4C[C@@H]43)c2)c(C)c1` [Example 185, N-(3-((1R,5S,6R)-3-amino-5-(difluoromethyl)-2-oxa-4-azabicyclo[4.1.0]hept-3-en-5-yl)-4-fluorophenyl)-3,5-dimethylpicolinamide], the half-inhibitory concentration (IC50) is 0.148 µM on BACE, 753 µM on Cathepsin D (Cat D) and 0.107 µM in assay [1].

As for `Cc1cc(C(F)F)cnc1C(=O)Nc1ccc(F)c([C@@]2(C(F)F)N=C(N)O[C@@H]3C[C@@H]32)c1` [Example 186, N-(3-((1R,5S,6R)-3-amino-5-(difluoromethyl)-2-oxa-4-azabicyclo[4.1.0]hept-3-en-5-yl)-4-fluorophenyl)-5-(difluoromethyl)-3-methylpicolinamide], the 50% inhibitory concentration (IC50) against BACE was determined as 0.0345 µM; at Cathepsin D (Cat D), 768 µM; in assay [1], 0.061 µM.

On to `COc1ccc(C(=O)Nc2ccc(F)c([C@@]3(C(F)F)N=C(N)O[C@@H]4C[C@@H]43)c2)nn1` [Example 187, N-(3-((1R,5S,6R)-3-amino-5-(difluoromethyl)-2-oxa-4-azabicyclo[4.1.0]hept-3-en-5-yl)-4-fluorophenyl)-6-methoxypyridazine-3-carboxamide], for which the IC50 against BACE was 1.41 µM; on Cathepsin D (Cat D), 667 µM; in assay [1], 3.44 µM.

`Cc1cc(C(F)(F)F)cnc1C(=O)Nc1ccc(F)c([C@@]2(C(F)F)N=C(N)O[C@@H]3C[C@@H]32)c1` [Example 188, N-(3-((1R,5S,6R)-3-amino-5-(difluoromethyl)-2-oxa-4-azabicyclo[4.1.0]hept-3-en-5-yl)-4-fluorophenyl)-3-methyl-5-(trifluoromethyl) picolinamide]: the 50% inhibitory concentration (IC50) on BACE worked out at 0.0279 µM; at Cathepsin D (Cat D), 159 µM; in assay [1], 0.04 µM.

For the compound `Cc1cc(OCC(F)(F)F)cnc1C(=O)Nc1ccc(F)c([C@@]2(C(F)F)N=C(N)O[C@@H]3C[C@@H]32)c1` [Example 189, N-(3-((1R,5S,6R)-3-amino-5-(difluoromethyl)-2-oxa-4-azabicyclo[4.1.0]hept-3-en-5-yl)-4-fluorophenyl)-3-methyl-5-(2,2,2-trifluoroethoxy) picolinamide], the IC50 against BACE came out at 0.386 µM; at Cathepsin D (Cat D) it was 770 µM; in assay [1] it was 0.12 µM.

As for `Cc1ccc(C(=O)Nc2ccc(F)c([C@@]3(C(F)F)N=C(N)O[C@@H]4C[C@@H]43)c2)nc1` [Example 190, N-(3-((1R,5S,6R)-3-amino-5-(difluoromethyl)-2-oxa-4-azabicyclo[4.1.0]hept-3-en-5-yl)-4-fluorophenyl)-5-methylpicolinamide], the half-inhibitory concentration (IC50) at BACE came to 0.0735 µM; at Cathepsin D (Cat D), 1470 µM; in assay [1] it was 0.151 µM.

For the compound `CC(F)(F)Oc1ccc(C(=O)Nc2ccc(F)c([C@@]3(C(F)F)N=C(N)O[C@@H]4C[C@@H]43)c2)nc1` [Example 191, N-(3-((1R,5S,6R)-3-amino-5-(difluoromethyl)-2-oxa-4-azabicyclo[4.1.0]hept-3-en-5-yl)-4-fluorophenyl)-5-(1,1-difluoroethoxy) picolinamide], the IC50 on BACE came out at 0.536 µM; on Cathepsin D (Cat D), 1070 µM; in assay [1], 0.415 µM.

For the compound `COc1cnc(C(=O)Nc2ccc(F)c([C@@]3(CF)N=C(N)O[C@@H]4C[C@@H]43)c2)cn1` [Example 194, N-(3-((1R,5S,6R)-3-amino-5-(fluoromethyl)-2-oxa-4-azabicyclo[4.1.0]hept-3-en-5-yl)-4-fluorophenyl)-5-methoxypyrazine-2-carboxamide], the figures for the IC50 (against BACE; at Cathepsin D (Cat D); in assay [1]) were 0.027 µM, 1230 µM and 0.143 µM, respectively.

`COc1ccc(C(=O)Nc2ccc(F)c([C@@]3(CF)N=C(N)O[C@@H]4C[C@@H]43)c2)nc1` [Example 195, N-(3-((1R,5S,6R)-3-amino-5-(fluoromethyl)-2-oxa-4-azabicyclo[4.1.0]hept-3-en-5-yl)-4-fluorophenyl)-5-methoxypicolinamide]: the IC50 on BACE was found to be 0.0156 µM; at Cathepsin D (Cat D), 759 µM; in assay [1] it was 0.124 µM.

Consider `Cc1cc(C#N)cnc1C(=O)Nc1ccc(F)c([C@@]2(CF)N=C(N)O[C@@H]3C[C@@H]32)c1` [Example 196, N-(3-((1R,5S,6R)-3-amino-5-(fluoromethyl)-2-oxa-4-azabicyclo[4.1.0]hept-3-en-5-yl)-4-fluorophenyl)-5-cyano-3-methylpicolinamide], for which the half-inhibitory concentration (IC50) against BACE stood at 0.009 µM; at Cathepsin D (Cat D), 703 µM; in assay [1] it was 0.0324 µM.

Regarding `C#CCOc1cnc(C(=O)Nc2ccc(F)c([C@@]3(CF)N=C(N)O[C@@H]4C[C@@H]43)c2)cn1` [Example 197, N-(3-((1R,5S,6R)-3-amino-5-(fluoromethyl)-2-oxa-4-azabicyclo[4.1.0]hept-3-en-5-yl)-4-fluorophenyl)-5-(prop-2-yn-1-yloxy)pyrazine-2-carboxamide], the IC50 at BACE stood at 0.0023 µM; on Cathepsin D (Cat D), 260 µM; in assay [1] it was 0.0066 µM.

In the case of `Cc1cc(Cl)cnc1C(=O)Nc1ccc(F)c([C@@]2(CF)N=C(N)O[C@@H]3C[C@@H]32)c1` [Example 198, N-(3-((1R,5S,6R)-3-amino-5-(fluoromethyl)-2-oxa-4-azabicyclo[4.1.0]hept-3-en-5-yl)-4-fluorophenyl)-5-chloro-3-methylpicolinamide], the figures for the concentration for half-maximal inhibition (IC50) (against BACE; at Cathepsin D (Cat D); in assay [1]) were 0.0152 µM, 349 µM and 0.0338 µM, respectively.

On to `Cc1c(C(=O)Nc2ccc(F)c([C@@]3(CF)N=C(N)O[C@@H]4C[C@@H]43)c2)nc2ccc(Cl)cn12` [Example 200, N-(3-((1R,5S,6R)-3-amino-5-(fluoromethyl)-2-oxa-4-azabicyclo[4.1.0]hept-3-en-5-yl)-4-fluorophenyl)-6-chloro-3-methylimidazo[1,2-a]pyridine-2-carboxamide], for which the values for the half-inhibitory concentration (IC50) (against BACE; at Cathepsin D (Cat D); in assay [1]) were 0.025 µM, 465 µM and 0.189 µM, respectively.

Regarding `NC1=N[C@](CF)(c2cc(NC(=O)c3cc4ccccc4cn3)ccc2F)[C@H]2C[C@H]2O1` [Example 202, N-(3-((1R,5S,6R)-3-amino-5-(fluoromethyl)-2-oxa-4-azabicyclo[4.1.0]hept-3-en-5-yl)-4-fluorophenyl) isoquinoline-3-carboxamide], the half-maximal inhibitory concentration (IC50) against BACE was found to be 0.159 µM; at Cathepsin D (Cat D), 430 µM; in assay [1] it was 0.499 µM.

Turning to `CC#CCOc1ccc(C(=O)Nc2ccc(F)c([C@@]3(CF)N=C(N)O[C@@H]4C[C@@H]43)c2)nc1` [Example 203, N-(3-((1R,5S,6R)-3-amino-5-(fluoromethyl)-2-oxa-4-azabicyclo[4.1.0]hept-3-en-5-yl)-4-fluorophenyl)-5-(but-2-yn-1-yloxy)picolinamide], the IC50 was determined as 0.0039 µM on BACE, 303 µM at Cathepsin D (Cat D) and 0.0089 µM in assay [1].

Take `N#Cc1ccc(C(=O)Nc2cnc(F)c([C@@]3(CF)N=C(N)O[C@@H]4C[C@@H]43)c2)nc1` [Example 204, N-(5-((1R,5S,6R)-3-amino-5-(fluoromethyl)-2-oxa-4-azabicyclo[4.1.0]hept-3-en-5-yl)-6-fluoropyridin-3-yl)-5-cyanopicolinamide]: the values for the concentration for half-maximal inhibition (IC50) (against BACE; on Cathepsin D (Cat D); in assay [1]) were 0.0335 µM, 294 µM and 0.145 µM, respectively.

In the case of `C#CCOc1cnc(C(=O)Nc2cnc(F)c([C@@]3(CF)N=C(N)O[C@@H]4C[C@@H]43)c2)cn1` [Example 206, N-(5-((1R,5S,6R)-3-amino-5-(fluoromethyl)-2-oxa-4-azabicyclo[4.1.0]hept-3-en-5-yl)-6-fluoropyridin-3-yl)-5-(prop-2-yn-1-yloxy)pyrazine-2-carboxamide], the IC50 was 0.0064 µM against BACE, 311 µM at Cathepsin D (Cat D) and 0.0094 µM in assay [1].
